From PubChem BioAssay AID463199 (Broad Institute, 2010)
Active and inactive are the calls of the source.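 The calls were made as follows: active = AC50, the dose giving half-maximal effect, exceeds a fixed cutoff for a compound that rescues yeast growth under heat; inactive = the rest, inconclusive results apart.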

tested on: S. cerevisiae Burl-1 ts mutant growth, BacTiter-Glo, 38.5C 24 h; experiment: growth induction of Burl-1 ts yeast mutant, dose response, counter-screen for SUMOylation pathway inhibitor project, whole organism, S. cerevisiae, luminescence (AID 463199)

SMILES	AC50
COC/C=C/C1=CC2=CC(=O)C(C)(OC(=O)c3cnc4ccccc4n3)C(=O)C2=CN1CCOC (stereo unspecified)	> 42 µM (inactive)
Clc1ccc(CN(Cc2ccccc2)C(c2cccs2)c2nnnn2C2CCCC2)cc1 (stereo unspecified)	> 42 µM (inactive)
c1ccc2cc(Cn3ccnc3)ccc2c1	> 42 µM (inactive)
CC(=O)Nc1ccc(C(=O)NCCCOC(C)C)cc1	> 42 µM (inactive)
CCN1CCN(CC(=O)N2N=CCC2c2ccccc2)CC1 (stereo unspecified)	> 42 µM (inactive)
CCSc1nc2ccccc2c(=O)n1C1CCOC(C)(C)C1 (stereo unspecified)	> 42 µM (inactive)
Cc1n[nH]c(=O)nc1NCc1ccc(Cl)cc1	> 42 µM (inactive)
CC(C)c1nc2n[nH]c(N)c2c2c1CCC2	> 42 µM (inactive)
CCOC(=O)c1c(C)[nH]c(C(=O)COC(=O)c2ccncc2)c1C	> 42 µM (inactive)
Cc1ccc(O)c(CNc2nc3ccccc3n2C)c1	> 42 µM (inactive)
CC1CCN(C(=O)c2[nH]cnc2C(=O)NCC(=O)OCc2ccccc2)CC1	> 42 µM (inactive)
CS(=O)(=O)N(CC(=O)N1CCCC1)c1cccc(Cl)c1Cl	> 42 µM (inactive)
CCOC(=O)c1c(C)n(C)c2cc(-c3ccc(C)cc3)c(O)cc12	> 42 µM (inactive)
Cc1ccc(C2=NN(CC(=O)NCc3cccs3)C(=O)CC2)cc1	> 42 µM (inactive)
Cn1cc(Br)c(C(=O)Nc2nccs2)n1	> 42 µM (inactive)
CC(=O)N1N=C(N)SC12CCCC2	> 42 µM (inactive)
COc1ccc(CCC(=O)Nc2ccc3c(c2)OCO3)cc1	> 42 µM (inactive)
CCn1nccc1C(=O)Nc1nccs1	> 42 µM (inactive)
CCC(CC)NC(=O)c1oc2ccccc2c1COc1ccccc1	> 42 µM (inactive)
COC(=O)c1ccccc1N(C)S(C)(=O)=O	> 42 µM (inactive)
Cc1cccc(OCc2nnc(SCC(=O)N3c4ccccc4CC3C)n2C)c1C (stereo unspecified)	> 42 µM (inactive)

SMILES	AC50
c1ccc(-c2cc3ccccc3cn2)cc1	> 42 µM (inactive)
Cc1ccccc1C(=O)NNC(=O)/C=C\C(=O)O	> 42 µM (inactive)
O=C(COC(=O)c1cccc(Br)c1)Nc1ccc2[nH]c(=O)[nH]c2c1	> 42 µM (inactive)
Cc1ccc(CNC(=O)CCNS(=O)(=O)c2cccs2)cc1	> 42 µM (inactive)
COCC(C)n1c(-c2ccc3c(c2)NC(=O)CO3)csc1=Nc1ccc(OC(F)F)cc1 (stereo unspecified)	> 42 µM (inactive)
COC(=O)c1[nH]c2cc(C)ccc2c1NC(=O)CN1CCN(c2ccccc2OC)CC1	> 21 µM (inactive)
O=C(Nc1nnc(COc2ccc(F)cc2)s1)c1cccs1	> 42 µM (inactive)
O=C(N/N=C/c1ccccc1)c1[nH]c2ccc(Br)cc2c1-c1ccccc1	> 42 µM (inactive)
Cc1cc(/C=C2\C(=O)NC(=O)N(c3ccccc3F)C2=O)c(C)n1-c1cc(C(=O)O)cc(C(=O)O)c1	> 42 µM (inactive)
COC(=O)c1sccc1NC(=S)N1CCCCC1	> 42 µM (inactive)
Nc1nc(-c2ccc(Cl)cc2)nc(-c2ccc(Cl)cc2)n1	> 42 µM (inactive)
CCCc1nc2c(nnn2Cc2ccccc2F)c(=O)[nH]1	> 42 µM (inactive)
O=C(NCC1CCN(Cc2ccccc2Cl)CC1)Nc1ccccc1F	> 42 µM (inactive)
O=C(CSc1nnc(CNC(=O)c2ccccc2F)o1)NCCc1ccccc1	> 42 µM (inactive)
CCCCn1c(N)c(N(CCOC)C(=O)c2ccc(Cl)c(S(=O)(=O)N3CCCCC3)c2)c(=O)[nH]c1=O	> 42 µM (inactive)
CCCCn1c(SCC(=O)Nc2cc(C)on2)nnc1-c1ccco1	> 42 µM (inactive)
COc1ccc(N2C(=O)CCC(C(=O)NCc3cccnc3)C2c2ccc(OC)c(OC)c2)cc1 (stereo unspecified)	> 42 µM (inactive)
Nc1nc2ccccc2cc1-c1cccs1	> 42 µM (inactive)
CN(CCOc1ccc(-c2ccn(S(=O)(=O)c3cccc4ccccc34)n2)cc1)c1ccccn1	> 42 µM (inactive)
COc1ccc(NC(=O)C(c2ccccc2)N2CCN(c3ccccn3)CC2)cc1Cl (stereo unspecified)	> 42 µM (inactive)
